Assay results: PMC4601023, “Novel anticancer agent, SQAP, binds to focal adhesion kinase and modulates its activity” (Scientific Reports, 2015)

What was measured:
HR23B = molecular target: T1, HR23B (Homo sapiens, UniProt P54727); assay: SPR analysis, immobilized GST-HR23B (GST control subtracted); format: binding; conditions: no kinetic analysis
T1 construct: ADRM1 and HR23B human full length proteins were purchased; purchased Abnova (Taipei, Taiwan)
Excerpt: SPR was utilized as an independent confirmation of the kinetic parameters between SQAP and the putative binding proteins. […] The recombinant proteins were then expressed in Escherichia coli and purified to homogeneity. In addition, full length, His-tagged ADRM1 and GST-tagged HR23B (GST-HR23B) were also used. The proteins were first immobilized on a CM5 sensor chip of the SPR biosensor (Biacore 3000). For GST-HR23B analysis, a GST protein was additionally immobilized and used as a control in order to eliminate possible nonspecific binding of SQAP. SQAP samples at different concentrations were then injected over the proteins immobilized on the sensor chip. As a negative control we used sulfoquynovosylpropanediol (SQP), which lacks the fatty acid moiety of SQAP (Fig. 1). […]
The binding kinetics of SCP-2, MFE-2, ADRM1, HR23B and FAK with SQAP and SQP were analyzed on a Biacore 3000 instrument (GE Healthcare, Little Chalfont, UK). […] The buffer of purified peptides was exchanged to HBS-P (150 mM NaCl, 0.005% Surfactant P20, 10 mM HEPES-NaOH pH 7.4) using a PD 10 column (GE Healthcare, Little Chalfont, UK) and the concentrations were quantified using DC protein assay kit (Bio-Rad Laboratories, Hercules, CA, USA). […] Kinetic parameters were determined by analyzing the data using BIAevaluation 4.1 software (GE Healthcare, Little Chalfont, UK).

[1] = test system: FAK phosphorylation (Y397, Y925) in A549 cells; assay: FAK phosphorylation level in A549, Western blotting; format: cell-based, human; conditions: A549, fibronectin 10 μg/mL, 1 h treatment
Description: A549 cells were incubated in a serum-free medium for 48 h in 60 mm dishes (IWAKI, Tokyo, Japan). Then 10 μM SQAP, SQMG or SQP was added and incubated for 30 min followed by addition of fibronectin 10 μg/mL (Sigma, St. Louis, MI, USA) and incubation for another 30 min. FAK phosphorylation level was analyzed by Western blotting as described in the next section.
Cells were harvested and solubilized in RIPA buffer (20 mM Tris-HCl, pH 7.5, 1% Sodium deoxycholate, 150 mM NaCl, 5 mM EDTA, 1% Triton X-100, 0.1% SDS, 0.1%, 1 mM PMSF, 1 mM vanadate and 1 μg/mL leupeptin). Protein quantification was determined using the DC protein assay kit (Bio-Rad, Hercules, CA, USA). A total of 15 μg of each protein sample were separated by SDS–PAGE gels and blotted onto polyvinylidene difluoride membranes (Merck, Kenilworth, NJ, US). After blocking for 1 h with Blocking-One (Nacalai Tesque, Kyoto, Japan), proteins were detected by incubating the membranes with the primary antibody at 4 °C overnight (anti-Y397 2:2000, anti-Y925 5:2000 and anti-FAK 0.5:2000) followed by incubation with horseradish peroxidase-conjugated secondary antibodies at room temperature for 1 h (anti-mouse 0.5:2000 and anti-rabbit 0.4:2000).

A549 cells = assay: Wound healing assay, A549; format: cell-based, human; conditions: A549, 25 h, 1% FBS and fibronectin 10 μg/mL; control 46%
Description: Figure 6 SQAP inhibits cell migration in vitro. (A) HUVEC cells were seeded and grown to 100% confluence in 60-mm diameter dishes. After generating a single scratch in the monolayer, the cells were cultured for 11 h in medium containing 1% FBS and VEGF (50 ng/mL) in the presence or absence of SQAP. Photographs were taken immediately after 11 h. (B) The change in wound width was measured as described in the Materials and Methods. (C) A549 cells were seeded and grown to 100% confluence in 60-mm diameter dishes. After generating a single scratch in the monolayer, the cells cultured for the 25 h in media containing 1% FBS and fibronectin (10 μg/ml) treated with SQAP or vehicle. Photographs were collected immediately after wounding and after 25 h. (D) The change in wound width was measured as described in the Materials and Methods. Cell migration was additionally examined in 96 well plates. HUVEC (E) and A549 cells (F) were seeded and grown into confluence overnight. After removing the stoppers, the live cells were stained with CellTracker^TM Green and incubated for the indicated time. The fluorescent emission signal was obtained with a plate reader. […]
Wound healing assay was analyzed by microscope imaging. […] Wound diameters in the images were measured and percentage of wound size was calculated as follows: [wound diameter at 11 or 25 h/wound diameter at 0 h] x 100.

T1 sequence (P54727 whole entry): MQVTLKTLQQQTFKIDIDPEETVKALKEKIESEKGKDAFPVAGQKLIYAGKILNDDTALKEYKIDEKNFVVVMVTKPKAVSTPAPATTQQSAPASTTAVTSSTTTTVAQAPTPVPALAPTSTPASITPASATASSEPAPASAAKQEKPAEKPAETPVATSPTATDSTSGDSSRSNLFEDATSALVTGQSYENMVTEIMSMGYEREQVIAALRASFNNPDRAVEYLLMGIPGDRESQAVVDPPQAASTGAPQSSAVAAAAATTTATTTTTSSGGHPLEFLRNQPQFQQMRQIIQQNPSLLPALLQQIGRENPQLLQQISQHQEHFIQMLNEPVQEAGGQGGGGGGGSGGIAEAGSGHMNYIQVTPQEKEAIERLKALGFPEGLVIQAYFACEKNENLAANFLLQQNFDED

Structure (SMILES): CCCCCCCCCCCCCCCCCC(=O)OCCCO[C@H]1O[C@H](CS(=O)(=O)O)[C@@H](O)[C@H](O)[C@H]1O [SQAP, sulfoquynovosylacylpropanediol]
- binding to HR23B (SPR response) (HR23B): specific binding response of SQAP in a dose-dependent manner
- phosphorylation of FAK at Y397 and Y925 [1]: could inhibit
- wound size (A549 cells): 68%
